This is an account of results in publication PMC7610864, “The Roles of Type 2 Cytotoxic T Cells in Inflammation, Tissue Remodeling, and Prostaglandin (PG) D2 Production Are Attenuated by PGD2 Receptor 2 Antagonism” (The Journal of Immunology Author Choice, 2021).

For orientation: IC50 means the concentration at which inhibition is half-maximal. Higher therefore signals weaker potency.

The assay has as its target T1, PGD2 receptor 2 (DP2) (Homo sapiens, UniProt Q9Y5Y4).
T1 construct: gene PTGDR2
T1 sequence (Q9Y5Y4 1-395): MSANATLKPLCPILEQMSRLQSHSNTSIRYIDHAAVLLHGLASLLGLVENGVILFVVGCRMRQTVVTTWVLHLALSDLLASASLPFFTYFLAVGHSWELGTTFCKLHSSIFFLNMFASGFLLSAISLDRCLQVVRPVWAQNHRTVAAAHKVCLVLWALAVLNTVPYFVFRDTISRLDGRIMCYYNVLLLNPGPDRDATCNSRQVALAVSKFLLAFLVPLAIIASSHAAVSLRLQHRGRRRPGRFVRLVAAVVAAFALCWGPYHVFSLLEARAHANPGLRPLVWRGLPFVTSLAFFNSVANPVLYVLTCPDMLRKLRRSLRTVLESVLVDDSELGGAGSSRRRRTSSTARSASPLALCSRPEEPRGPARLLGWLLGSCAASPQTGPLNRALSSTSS

In turn, `Cc1c(CC(=O)O)c2cccnc2n1Cc1ccc(S(C)(=O)=O)cc1C(F)(F)F` [fevipiprant] gave an IC50 of 3.5 ± 3.6 nM.
